Measured values: US6682908B1, “Mouse growth hormone secretagogue receptor” (Merck & Co., Inc., priority 1998, dated 2004)

Molecular target: T1, mouse GHS-R (Mus musculus, UniProt Q99P50)
T1 construct: the complete and contiguous open reading frame of mGHS-R; expressed in transfected cells; host or cells: 293-AEQ17 (aequorin-expressing reporter cell line), transiently transfected with pcDNA-3/mouse GHS-R
Experiment: aequorin bioluminescence assay of mouse GHS-R expressed in 293-AEQ17 cells
Assay type: cell-based
Conditions: expression of the complete and contiguous open reading frame of mGHS-R; aequorin biolumenescence assay
Experimental: The mouse isoform of the previously identified GHS-R was cloned from two genomic DNA libraries for the generation of a GHS-R knock-out mouse.
The cells were harvested, washed once in ECB medium and resuspended to 500,000 cells/ml. One hundred (100) […] of cell suspension (corresponding to 5×10^4 cells) was then injected into each well of a 96-well microtiter test plate, and the integrated light emission was recorded over 30 seconds, in 0.5 second units. Twenty (20) μl of lysis buffer (0.1% final Triton X-100 concentration) was then injected and the integrated light emission recorded over 10 seconds, in 0.5 second units. The “fractional response” values for each well were calculated by taking the ratio of the integrated response to the initial challenge to the total integrated luminescence including the Triton X-100 lysis response. Data were analyzed using GraphPad Prism software V.2.0 (GraphPad Software, San Diego, Calif.).

T1 sequence (Q99P50 whole entry): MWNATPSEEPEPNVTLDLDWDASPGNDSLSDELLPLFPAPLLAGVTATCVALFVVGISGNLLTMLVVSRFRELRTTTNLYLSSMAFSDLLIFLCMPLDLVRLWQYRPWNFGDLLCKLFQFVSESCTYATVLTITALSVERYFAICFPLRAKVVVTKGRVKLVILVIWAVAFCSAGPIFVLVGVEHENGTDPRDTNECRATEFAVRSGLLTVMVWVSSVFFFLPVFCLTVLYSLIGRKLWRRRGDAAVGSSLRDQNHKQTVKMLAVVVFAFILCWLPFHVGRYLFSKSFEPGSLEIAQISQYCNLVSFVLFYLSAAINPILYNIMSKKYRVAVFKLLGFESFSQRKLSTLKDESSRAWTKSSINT

Compound	functional activation of mGHS-R
CC(C)(N)C(=O)N[C@H](COCc1ccccc1)C(=O)N1CCC2(CC1)CN(S(C)(=O)=O)c1ccccc12 [MK-0677]	functionally activated
GHRP-6	functionally activated
